This note sets out measurements from patent US20150011466A1, “APJ Receptor Compounds” (priority 2012, published 2015).

Like-named read-outs stand apart in the source and are kept apart here. Where a SMILES comes first, the peptide text is derived from it. Where no end group is shown, it is not given here. [ ]: non-standard residue; d: D form. The star is where a group is joined. Palmitoyl = CCCCCCCCCCCCCCCC(=O)*; Aib = CC(C)(N)C(=O)O

The target of data set [1] is T1, APJ receptor (Homo sapiens, UniProt P35414).
T1 construct: expressed in transfected cells; host or cells: Human TRex cells (doxycycline-inducible)
T1 sequence (P35414 1-380): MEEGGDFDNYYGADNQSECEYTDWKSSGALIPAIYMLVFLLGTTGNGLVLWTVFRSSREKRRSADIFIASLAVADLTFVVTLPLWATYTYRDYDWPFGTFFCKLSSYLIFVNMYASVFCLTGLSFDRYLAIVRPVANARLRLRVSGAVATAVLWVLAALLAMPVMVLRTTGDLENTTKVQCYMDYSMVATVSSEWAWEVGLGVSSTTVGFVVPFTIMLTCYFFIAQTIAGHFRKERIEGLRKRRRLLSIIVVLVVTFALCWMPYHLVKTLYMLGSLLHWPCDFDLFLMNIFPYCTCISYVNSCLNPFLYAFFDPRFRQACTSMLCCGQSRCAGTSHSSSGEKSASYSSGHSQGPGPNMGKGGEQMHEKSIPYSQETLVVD
The data set is described as follows: HTRF cAMP assay, inhibition of NKH477 stimulated cAMP in Human TRex cells expressing APJ upon doxycycline induction (APJ-hTREX). The conditions noted are these: for Ranking: class combining EC50 and % histamine; for percent intrinsic activity at 0.3 µM: read-out: % IA (@ 300 nM). Format: cell-based. From the text: HTRF (homogeneous time resolved fluorescence) is a technology developed by Cisbio Bioassays based on TR-FRET (time-resolved fluorescence resonance energy transfer). Cisbio Bioassays has developed a wide selection of HTRF-based assays compatible with whole cells, thereby enabling functional assays to run under more physiological conditions. The IP-One assays are competitive immunoassays using cryptate-labeled anti-IP1 monoclonal antibody and d2-labeled IP1. IP1 is a relatively stable downstream metabolite of IP3, and accumulates in cells following Gq receptor activation.
cAMP kits based on a competitive immunoassay using cryptate-labeled anti-cAMP antibody and d2-labeled cAMP were used to assay the effects of APJ compounds of the present invention. […] Cells are treated with […] doxycycline and seeded in all white 96 well plates @ 40 k/well overnight.

The nature of data set [2]: Histimine (% vs. 48/40).

Usually EC50 stands for the midpoint of the concentration-response curve. With `CCCCCCCCCCCCCCCC(=O)N[C@H](C(=O)N[C@H](C(=O)N[C@@H](Cc1ccccc1)C(=O)N[C@@H](CCCNC(=N)N)C(=O)N[C@@H](CO)C(=O)N[C@@H](CO)C(=O)N[C@@H](CCC(=O)O)C(=O)N[C@H](CCCCN)C(=O)N[C@@H](Cc1ccccc1)C(=O)N[C@@H](CCCNC(=N)N)C(=O)N[C@@H](CO)C(=O)N[C@@H](C)C(=O)N[C@@H](CC(=O)O)C(=O)N[C@H](C(=O)N[C@@H](Cc1ccccc1)C(=O)N[C@H](C(N)=O)[C@@H](C)CC)[C@@H](C)CC)C(C)C)[C@@H](C)O` [Compound 3] (Palmitoyl-TVFRSSE[dK]FRSADIFI-NH2; C-terminus assumed), in data set [1], the EC50 was 243 nM; the Ranking entry is “**** (EC50 101-500 nM and % histamine<35%)”; the percent intrinsic activity at 0.3 µM was determined as 71%. For the same molecule, the “Histimine (% vs. 48/40)” value in data set [2] is given as 29%.

As to `CCCCCCCCCCCCCCCC(=O)N[C@H](C(=O)N[C@H](C(=O)N[C@@H](Cc1ccccc1)C(=O)N[C@@H](CCCNC(=N)N)C(=O)N[C@@H](CO)C(=O)N[C@@H](CO)C(=O)N[C@@H](CCC(=O)O)C(=O)N[C@H](CCCCN)C(=O)N[C@@H](CCCNC(=N)N)C(=O)N[C@@H](CCCNC(=N)N)C(=O)N[C@@H](CO)C(=O)N[C@@H](C)C(=O)N[C@@H](Cc1ccccc1)C(=O)N[C@H](C(=O)N[C@@H](Cc1ccccc1)C(=O)N[C@H](C(N)=O)[C@@H](C)CC)[C@@H](C)CC)C(C)C)[C@@H](C)O` [Compound 4] (Palmitoyl-TVFRSSE[dK]RRSAFIFI-NH2), the percent intrinsic activity at 0.3 µM in data set [1] was determined as 65%. Besides, the “Histimine (% vs. 48/40)” value in data set [2] worked out at 118%. On to `CCCCCCCCCCCCCCCC(=O)N[C@H](C(=O)N[C@H](C(=O)N[C@@H](Cc1ccccc1)C(=O)N[C@@H](CCCNC(=N)N)C(=O)N[C@@H](CO)C(=O)N[C@@H](CO)C(=O)N[C@@H](CCC(=O)O)C(=O)N[C@H](CCCCN)C(=O)N[C@@H](CCCNC(=N)N)C(=O)N[C@@H](CCCNC(=N)N)C(=O)N[C@@H](CO)C(=O)N[C@@H](C)C(=O)N[C@@H](CC(=O)O)C(=O)N[C@H](C(=O)N[C@@H](Cc1ccccc1)C(=O)N[C@@H](Cc1ccccc1)C(N)=O)[C@@H](C)CC)C(C)C)[C@@H](C)O` [Compound 6] (Palmitoyl-TVFRSSE[dK]RRSADIFF-NH2; C-terminus assumed), for which, in data set [1], the Ranking entry was “*** (EC50<100 nM and % histamine>35%)”; the percent intrinsic activity at 0.3 µM came to 76%. In data set [1] (inhibition of NKH477 stimulated cAMP, APJ-hTREX cells, read-out: APJ-hTREX EC50), the EC50 stood at 49.2 nM. Also, the “Histimine (% vs. 48/40)” value in data set [2] amounted to 70%.

With `CCCCCCCCCCCCCCCC(=O)N[C@H](C(=O)N[C@H](C(=O)N[C@@H](Cc1ccccc1)C(=O)N[C@@H](CCCNC(=N)N)C(=O)N[C@@H](CO)C(=O)N[C@@H](Cc1c[nH]cn1)C(=O)N[C@@H](CCC(=O)O)C(=O)N[C@H](CCCCN)C(=O)N[C@@H](CCCNC(=N)N)C(=O)N[C@@H](CCCNC(=N)N)C(=O)N[C@@H](CO)C(=O)N[C@@H](C)C(=O)N[C@@H](CC(=O)O)C(=O)N[C@H](C(=O)N[C@@H](Cc1ccccc1)C(=O)N[C@H](C(N)=O)[C@@H](C)CC)[C@@H](C)CC)C(C)C)[C@@H](C)O` [Compound 11] (Palmitoyl-TVFRSHE[dK]RRSADIFI-NH2; C-terminus assumed), in data set [1], the EC50 turned out to be 65.1 nM; the Ranking entry is “*** (EC50<100 nM and % histamine>35%)”; the percent intrinsic activity at 0.3 µM came to 68%. Moreover, the “Histimine (% vs. 48/40)” value in data set [2] is 38%. Regarding `CCCCCCCCCCCCCCCC(=O)N[C@H](C(=O)N1CCC[C@H]1C(=O)N[C@@H](Cc1ccccc1)C(=O)N[C@@H](CCCNC(=N)N)C(=O)N[C@@H](CO)C(=O)N[C@@H](CO)C(=O)N[C@@H](CCC(=O)O)C(=O)N[C@H](CCCCN)C(=O)N[C@@H](CCCNC(=N)N)C(=O)N[C@@H](CCCNC(=N)N)C(=O)N[C@@H](CO)C(=O)N[C@@H](C)C(=O)N[C@@H](CC(=O)O)C(=O)N[C@H](C(=O)N[C@@H](Cc1ccccc1)C(=O)N[C@H](C(N)=O)[C@@H](C)CC)[C@@H](C)CC)[C@@H](C)O` [Compound 43] (Palmitoyl-TPFRSSE[dK]RRSADIFI-NH2), the percent intrinsic activity at 0.3 µM in data set [1] worked out at 39%. On the same count and under the same terms, for `CCCCCCCCCCCCCCCC(=O)N[C@H](C(=O)N[C@H](C(=O)N[C@@H](Cc1ccccc1)C(=O)N[C@@H](CCCNC(=N)N)C(=O)N1CCC[C@H]1C(=O)N[C@@H](CO)C(=O)N[C@@H](CCC(=O)O)C(=O)N[C@H](CCCCN)C(=O)N[C@@H](CCCNC(=N)N)C(=O)N[C@@H](CCCNC(=N)N)C(=O)N[C@@H](CO)C(=O)N[C@@H](C)C(=O)N[C@@H](CC(=O)O)C(=O)N[C@H](C(=O)N[C@@H](Cc1ccccc1)C(=O)N[C@H](C(N)=O)[C@@H](C)CC)[C@@H](C)CC)C(C)C)[C@@H](C)O` [Compound 45] (Palmitoyl-TVFRPSE[dK]RRSADIFI-NH2) the value was 70%; for `CCCCCCCCCCCCCCCC(=O)N[C@H](C(=O)N[C@H](C(=O)N[C@@H](Cc1ccccc1)C(=O)N[C@@H](CCCNC(=N)N)C(=O)N[C@@H](CO)C(=O)N1CCC[C@H]1C(=O)N[C@@H](CCC(=O)O)C(=O)N[C@H](CCCCN)C(=O)N[C@@H](CCCNC(=N)N)C(=O)N[C@@H](CCCNC(=N)N)C(=O)N[C@@H](CO)C(=O)N[C@@H](C)C(=O)N[C@@H](CC(=O)O)C(=O)N[C@H](C(=O)N[C@@H](Cc1ccccc1)C(=O)N[C@H](C(N)=O)[C@@H](C)CC)[C@@H](C)CC)C(C)C)[C@@H](C)O` [Compound 46] (Palmitoyl-TVFRSPE[dK]RRSADIFI-NH2), 77%. The same measure, in the same setting: for `CCCCCCCCCCCCCCCC(=O)N[C@H](C(=O)N[C@H](C(=O)N[C@@H](Cc1ccccc1)C(=O)N[C@@H](CCCNC(=N)N)C(=O)N[C@@H](CO)C(=O)NC(C)(C)C(=O)N[C@@H](CCC(=O)O)C(=O)N[C@H](CCCCN)C(=O)N[C@@H](CCCNC(=N)N)C(=O)N[C@@H](CCCNC(=N)N)C(=O)N[C@@H](CO)C(=O)N[C@@H](C)C(=O)N[C@@H](CC(=O)O)C(=O)N[C@H](C(=O)N[C@@H](Cc1ccccc1)C(=O)N[C@H](C(N)=O)[C@@H](C)CC)[C@@H](C)CC)C(C)C)[C@@H](C)O` [Compound 59] (Palmitoyl-TVFRS[Aib]E[dK]RRSADIFI-NH2) the value was 66%.

For `CCCCCCCCCCCCCCCC(=O)N[C@H](C(=O)N[C@H](C(=O)N[C@@H](Cc1ccccc1)C(=O)N[C@@H](CCCNC(=N)N)C(=O)N[C@@H](CO)C(=O)NCC(=O)N[C@@H](CCC(=O)O)C(=O)N[C@H](CCCCN)C(=O)N[C@@H](CCCNC(=N)N)C(=O)N[C@@H](CCCNC(=N)N)C(=O)N[C@@H](CO)C(=O)N[C@@H](C)C(=O)N[C@@H](CC(=O)O)C(=O)N[C@H](C(=O)N[C@@H](Cc1ccccc1)C(=O)N[C@H](C(N)=O)[C@@H](C)CC)[C@@H](C)CC)C(C)C)[C@@H](C)O` [Compound 73] (Palmitoyl-TVFRSGE[dK]RRSADIFI-NH2), in data set [1], the percent intrinsic activity at 0.3 µM was 67%. Still for that read-out and setting: for `CCCCCCCCCCCCCCCC(=O)N[C@H](C(=O)N[C@H](C(=O)N[C@@H](Cc1ccccc1)C(=O)N[C@@H](CCCNC(=N)N)C(=O)N[C@@H](CO)C(=O)N[C@@H](CO)C(=O)NCC(=O)N[C@H](CCCCN)C(=O)N[C@@H](CCCNC(=N)N)C(=O)N[C@@H](CCCNC(=N)N)C(=O)N[C@@H](CO)C(=O)N[C@@H](C)C(=O)N[C@@H](CC(=O)O)C(=O)N[C@H](C(=O)N[C@@H](Cc1ccccc1)C(=O)N[C@H](C(N)=O)[C@@H](C)CC)[C@@H](C)CC)C(C)C)[C@@H](C)O` [Compound 74] (Palmitoyl-TVFRSSG[dK]RRSADIFI-NH2) the value was 61%. Still for that read-out and setting: for `CCCCCCCCCCCCCCCC(=O)N[C@H](C(=O)N[C@H](C(=O)N[C@@H](Cc1ccccc1)C(=O)N[C@@H](CCCNC(=N)N)C(=O)N[C@@H](CO)C(=O)N[C@@H](CO)C(=O)N[C@@H](CCC(=O)O)C(=O)N[C@H](CCCCN)C(=O)NCC(=O)N[C@@H](CCCNC(=N)N)C(=O)N[C@@H](CO)C(=O)N[C@@H](C)C(=O)N[C@@H](CC(=O)O)C(=O)N[C@H](C(=O)N[C@@H](Cc1ccccc1)C(=O)N[C@H](C(N)=O)[C@@H](C)CC)[C@@H](C)CC)C(C)C)[C@@H](C)O` [Compound 75] (Palmitoyl-TVFRSSE[dK]GRSADIFI-NH2) the value was 57%. Take “TVFRSSEkPRSADIFI (TVFRSSE[dK]PRSADIFI; also: Pal-C(O)- tether, place not given here) [Compound 49]”: the “% IA (@ 300 nM)” value in data set [1] came out at 49%. Same read-out and setting: next, “TVFRSSEkRRSADFFI (TVFRSSE[dK]RRSADFFI; also: Pal-C(O)- tether, place not given here) [Compound 5]”: 81%.
